Experimental data: ChEMBL document CHEMBL6071200, “Discovery of Ring-Annulated Analogues of Cannabidiol as Potential Anticancer Agents: Synthesis and Biological Evaluation” (ACS Med Chem Lett, 2024)
In brackets after ≈: the same amount, converted by molar mass. Activity calls are given as the source filed them. The calls are words filed in the database; no cut-off is given here.

Key:
[1] = Solubility of compound in SIF by UV absorbance based analysis; type: physicochemical
[2] = Solubility of compound in water by UV absorbance based analysis; type: physicochemical
[3] = Solubility of compound in SGF by UV absorbance based analysis; type: physicochemical
NCI-H226 = assay: Anticancer activity against human NCI-H226 cells; type: functional, cell-based
[4] = Anticancer activity against mouse NIH3T3 cells; type: toxicity, cell-based
DU-145 = assay: Anticancer activity against human DU-145 cells; type: functional, cell-based
HT-29 = assay: Anticancer activity against human HT-29 cells; type: functional, cell-based
Jurkat = assay: Anticancer activity against human Jurkat cells; type: functional, cell-based
Raji = assay: Anticancer activity against human Raji cells; type: functional, cell-based
MCF7 [5] = assay: Anticancer activity against human MCF7 cells; type: functional, cell-based
SNB-19 = assay: Anticancer activity against human SNB-19 cells; type: functional, cell-based
[6] = Selectivity index, ratio of IC50 for HEK293 cells to IC50 for human HCT-116 cells; type: toxicity; settings: HEK293 cells versus HCT-116 cells, read-out: Ratio IC50
[7] = Cytotoxicity against human HEK293 cells assessed as inhibition of cell growth incubated for 48 hrs by SRB assay; type: toxicity, cell-based
MCF7 [8] = assay: Cytotoxicity against human MCF7 cells assessed as inhibition of cell growth incubated for 48 hrs by SRB assay; type: functional, cell-based; settings: MCF7, 48 h
HCT-116 [9] = assay: Cytotoxicity against human HCT-116 cells assessed as inhibition of cell growth at 20 uM incubated for 48 hrs by SRB assay relative to control; type: functional
HCT-116 [10] = assay: Cytotoxicity against human HCT-116 cells assessed as inhibition of cell growth incubated for 48 hrs by SRB assay; type: functional, cell-based; settings: HCT-116, 48 h
MCF7 [11] = assay: Cytotoxicity against human MCF7 cells assessed as inhibition of cell growth at 20 uM incubated for 48 hrs by SRB assay relative to control; type: functional
[12] = Selectivity index, ratio of IC50 for HEK293 cells to IC50 for human MCF7 cells; type: toxicity; settings: HEK293 cells versus MCF7 cells, read-out: Ratio IC50
MCF7 [13] = assay: Anticancer activity against human MCF7 cells assessed as effect on cell viability by SRB assay; type: functional, cell-based

Which solubility [1] does the source give for O=C(/C=C/C=C/c1ccc2c(c1)OCO2)N1CCCCC1 [PIPERINE] here?
Its solubility is 60 µg/mL (≈ 210 µM).

What about the solubility [2] of the same molecule?
The solubility was 40 µg/mL (≈ 140 µM).

What about the solubility [3] of the same molecule?
Its solubility is 40 µg/mL (≈ 140 µM).

What does the source list for C=C(C)[C@@H]1CCC(C)=C[C@H]1C1=C(OC)C(=O)C(CCCCC)=CC1=O?
IC50 (NCI-H226): 0.449 µM; IC50 [4]: 0.449 µM; IC50 (DU-145): 0.449 µM; IC50 (HT-29): 0.449 µM; IC50 (Jurkat): 0.449 µM; IC50 (Raji): 0.449 µM; IC50 (MCF7 [5]): 0.449 µM; IC50 (SNB-19): 0.449 µM

For C=C(C)[C@@H]1CCC(C)=C[C@H]1c1c(O)cc(CCCCC)c2c1OCN(CCCN1CCOCC1)C2, which selectivity ratio [6] is on record?
Its selectivity ratio is 0.8.

And the IC50 at 48 h [7]?
The IC50 at 48 h was 10.6 µM.

And the IC50 (MCF7 [8])?
The IC50 was 8.8 µM.

And the inhibition at 20 µM (HCT-116 [9])?
The inhibition at 20 µM was 58.5%.

What about the IC50 (HCT-116 [10]) of the same molecule?
Its IC50 is 12.1 µM.

And the inhibition at 20 µM (MCF7 [11])?
The inhibition at 20 µM was 76.8%.

And the selectivity ratio [12]?
The selectivity ratio was 1.2.

What does the source list for C=C(C)[C@@H]1CCC(C)=C[C@H]1c1c(O)cc(CCCCC)c2c1OCN(c1ccccc1F)C2?
inhibition at 20 µM (HCT-116 [9]): 1.13%; inhibition at 20 µM (MCF7 [11]): 16.6%

Which inhibition at 20 µM (HCT-116 [9]) does the source give for C=C(C)[C@@H]1CCC(C)=C[C@H]1c1c(O)cc(CCCCC)c2c1OCN(c1ccccc1)C2 here?
Its inhibition at 20 µM is 4.09%.

What about the inhibition at 20 µM (MCF7 [11]) of the same molecule?
The inhibition at 20 µM was 5.3%.

Which inhibition at 20 µM (HCT-116 [9]) does the source give for C=C(C)[C@@H]1CCC(C)=C[C@H]1c1c(O)cc(CCCCC)c2c1OCN(C1CC1)C2 here?
Its inhibition at 20 µM is 51.7%.

What about the inhibition at 20 µM (MCF7 [11]) of the same molecule?
Its inhibition at 20 µM is 75.1%.

Which Activity (MCF7 [13]) does the source give for COc1ccc(-c2oc3cc(OC)ccc3c2C(=O)c2ccc(C#N)cc2)cc1 here?
The Activity was “inactive”.

What does the source list for C=C(C)[C@@H]1CCC(C)=C[C@H]1c1c(O)cc(CCCCC)c2c1OCN(C1CCCCCC1)C2?
inhibition at 20 µM (HCT-116 [9]): 50.9%; inhibition at 20 µM (MCF7 [11]): 74.8%

Which results are given for C=C(C)[C@@H]1CCC(C)=C[C@H]1c1c(O)cc(CCCCC)c2c1OCN(c1ccc(C(C)C)cc1)C2?
inhibition at 20 µM (HCT-116 [9]): 0%; inhibition at 20 µM (MCF7 [11]): 9.47%

For C=C(C)[C@@H]1CCC(C)=C[C@H]1C1=C(O)C(=O)C(CCCCC)=CC1=O, which IC50 (NCI-H226) is on record?
Its IC50 is 0.449 µM.

And the IC50 [4]?
Its IC50 is 0.449 µM.

What about the IC50 (DU-145) of the same molecule?
The IC50 was 0.449 µM.

And the IC50 (HT-29)?
The IC50 was 0.449 µM.

What about the IC50 (Jurkat) of the same molecule?
Its IC50 is 0.449 µM.

What about the IC50 (Raji) of the same molecule?
The IC50 was 0.449 µM.

And the IC50 (MCF7 [5])?
Its IC50 is 0.449 µM.

And the IC50 (SNB-19)?
The IC50 was 0.449 µM.

With C=C(C)[C@@H]1CCC(C)=C[C@H]1c1c(O)cc(CCCCC)c2c1OCN(CCCCCC)C2 as the molecule, how does the selectivity ratio [6] read?
The selectivity ratio was 1.1.

What about the IC50 at 48 h [7] of the same molecule?
The IC50 at 48 h was 23.5 µM.

And the IC50 (MCF7 [8])?
The IC50 was 9.5 µM.

What about the inhibition at 20 µM (HCT-116 [9]) of the same molecule?
Its inhibition at 20 µM is 70.9%.

What about the IC50 (HCT-116 [10]) of the same molecule?
Its IC50 is 19.8 µM.

And the inhibition at 20 µM (MCF7 [11])?
The inhibition at 20 µM was 83%.

And the selectivity ratio [12]?
The selectivity ratio was 2.4.

Which results are given for C=C(C)[C@@H]1CCC(C)=C[C@H]1c1c(O)cc(CCCCC)c2c1OCN(CC)C2?
selectivity ratio [6]: 0.7; IC50 at 48 h [7]: 16.8 µM; IC50 (MCF7 [8]): 8.6 µM; inhibition at 20 µM (HCT-116 [9]): 57.2%; IC50 (HCT-116 [10]): 22.1 µM; inhibition at 20 µM (MCF7 [11]): 84.3%; selectivity ratio [12]: 1.9

For Cc1cc(C)c2nc(-c3ccccn3)cc(C(=O)Nc3ccc(S(=O)(=O)Nc4onc(C)c4C)cc3)c2c1, which Activity (MCF7 [13]) is on record?
Its Activity is “inactive”.
